From PubChem BioAssay AID328 (DTP/NCI, 2004)
“And” between values parts separate entries of the source, which are not always exact repeats. Equal values may be shown once. Inconclusive results and toxic doses are left out. Positions of bridges follow the written chain, without caps; N, C: chain ends. Non-standard residues stand in square brackets, D forms with d. Residues, ends and D or L forms follow the SMILES beside them. Aib = CC(C)(N)C(=O)O

Tested on: BDF1 mice, P388 leukemia ip, median survival T/C
Assay: NCI In Vivo Anticancer Drug Screen. Data for tumor model P388 Leukemia (intraperitoneal) in B6D2F1 (BDF1) mice
Conditions: endpoint: median survival time, higher = longer survival
In short: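 Survival ratio, drug arm over vehicle arm, in mice with a transplanted tumour.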

[1] = dose: 50.0 mg/kg/injection, schedule: Q01DX009 (ip), vehicle: saline with Tween-80
[2] = dose: 50.0 mg/kg/injection, schedule: Q01DX009 (ip), vehicle: saline
[3] = dose: 100.0 mg/kg/injection, schedule: Q01DX009 (ip), vehicle: saline with Tween-80
[4] = dose: 100.0 mg/kg/injection, schedule: Q01DX009 (ip), vehicle: saline
[5] = dose: 100.0 mg/kg/injection, schedule: Q04DX003 (ip), vehicle: saline with Tween-80
[6] = dose: 100.0 mg/kg/injection, schedule: Q04DX003 (ip), vehicle: saline
[7] = dose: 200.0 mg/kg/injection, schedule: Q01DX009 (ip), vehicle: saline with Tween-80
[8] = dose: 200.0 mg/kg/injection, schedule: Q04DX003 (ip), vehicle: saline with Tween-80
[9] = dose: 200.0 mg/kg/injection, schedule: Q04DX003 (ip), vehicle: saline
[10] = dose: 400.0 mg/kg/injection, schedule: Q04DX003 (ip), vehicle: saline with Tween-80
[11] = dose: 100.0 mg/kg/injection, schedule: Q01DX009 (ip), vehicle: Klucel (hydroxypropylcellulose) (HPC)
[12] = dose: 200.0 mg/kg/injection, schedule: Q01DX009 (ip), vehicle: Klucel (hydroxypropylcellulose) (HPC)

SMILES: O=CNNC(=O)c1ccccn1
- T/C [1]: 96 % of control
- T/C [2]: 100 % of control
- T/C (dose: 50.0 mg/kg/injection, schedule: Q04DX003 (ip), vehicle: saline): 100 % of control
- T/C [3]: 96 % of control
- T/C [4]: 104 % of control
- T/C [5]: 113 % of control
- T/C [6]: 100 % of control
- T/C [7]: 96 % of control
- T/C [8]: 109 % of control
- T/C [9]: 100 % of control

SMILES: COC(=O)/C=C\SC(=S)C1CCCC1=NC1CCCCC1 (stereo not drawn)
- T/C [1]: 102 % of control
- T/C [3]: 97 % of control

SMILES: CS(=O)(=O)OCCn1c(=O)n(CCOS(C)(=O)=O)c(=O)n(CCOS(C)(=O)=O)c1=O
- T/C (dose: 100.0 mg/kg/injection, schedule: Q01DX009 (ip), vehicle: saline sonified): 90 % of control
- T/C [5]: 90 % of control
- T/C (dose: 200.0 mg/kg/injection, schedule: Q01DX009 (ip), vehicle: saline sonified): 110 % of control
- T/C [8]: 100 % of control
- T/C (dose: 400.0 mg/kg/injection, schedule: Q01DX009 (ip), vehicle: saline sonified): 90 % of control
- T/C [10]: 100 % of control

SMILES: O=[N+]([O-])c1ccc(/C=[N+](\[O-])CCO)cc1
- T/C (dose: 6.25 mg/kg/injection, schedule: Q01DX009 (ip), vehicle: saline with Tween-80): 101 % of control
- T/C (dose: 12.5 mg/kg/injection, schedule: Q01DX009 (ip), vehicle: saline with Tween-80): 101 % of control
- T/C (dose: 25.0 mg/kg/injection, schedule: Q01DX009 (ip), vehicle: saline with Tween-80): 100 % of control

SMILES: CC(C)=CCC/C(C)=C/CO
- T/C (dose: 15.6 mg/kg/injection, schedule: Q01DX010 (ip), vehicle: saline): 100 % of control
- T/C (dose: 31.3 mg/kg/injection, schedule: Q01DX010 (ip), vehicle: saline): 100 % of control
- T/C (dose: 62.5 mg/kg/injection, schedule: Q01DX010 (ip), vehicle: saline): 113 % of control
- T/C (dose: 125.0 mg/kg/injection, schedule: Q01DX010 (ip), vehicle: saline): 118 % of control

SMILES: COc1cc(OC)cc(C(=O)N2CC2)c1
- T/C (dose: 6.25 mg/kg/injection, schedule: Q04DX003 (ip), vehicle: water): 105 % of control
- T/C (dose: 12.5 mg/kg/injection, schedule: Q04DX003 (ip), vehicle: water): 98 % of control
- T/C (dose: 25.0 mg/kg/injection, schedule: Q04DX003 (ip), vehicle: water): 105 % of control
- T/C (dose: 50.0 mg/kg/injection, schedule: Q04DX003 (ip), vehicle: water): 96 % of control
- T/C (dose: 100.0 mg/kg/injection, schedule: Q04DX003 (ip), vehicle: water): 107 % of control
- T/C (dose: 200.0 mg/kg/injection, schedule: Q01DX009 (ip), vehicle: water): 100 % of control
- T/C (dose: 200.0 mg/kg/injection, schedule: Q04DX003 (ip), vehicle: water): 100 % of control
- T/C (dose: 300.0 mg/kg/injection, schedule: Q01DX009 (ip), vehicle: water): 105 % of control
- T/C (dose: 400.0 mg/kg/injection, schedule: Q01DX009 (ip), vehicle: water): 91 % of control

SMILES: CCCCCCCCCCCCCCCCCS(=O)S(=O)O (stereo not drawn)
- T/C (dose: 89.0 mg/kg/injection, schedule: Q01DX009 (ip), vehicle: saline with Tween-80): 116 % of control
- T/C [11]: 116 % of control
- T/C (dose: 132.0 mg/kg/injection, schedule: Q01DX009 (ip), vehicle: Klucel (hydroxypropylcellulose) (HPC)): 109 % of control
- T/C [12]: 119 % of control
- T/C (dose: 300.0 mg/kg/injection, schedule: Q01DX009 (ip), vehicle: Klucel (hydroxypropylcellulose) (HPC)): 122 % of control

SMILES: O=C1c2ccccc2S(=O)(=O)N1CCN1C(=O)c2ccccc2S1(=O)=O
- T/C [11]: 100 % of control
- T/C (dose: 100.0 mg/kg/injection, schedule: Q04DX003 (ip), vehicle: Klucel (hydroxypropylcellulose) (HPC)): 95 % of control
- T/C [12]: 100 % of control
- T/C (dose: 200.0 mg/kg/injection, schedule: Q04DX003 (ip), vehicle: Klucel (hydroxypropylcellulose) (HPC)): 100 % of control
- T/C (dose: 400.0 mg/kg/injection, schedule: Q01DX009 (ip), vehicle: Klucel (hydroxypropylcellulose) (HPC)): 90 % of control
- T/C (dose: 400.0 mg/kg/injection, schedule: Q04DX003 (ip), vehicle: Klucel (hydroxypropylcellulose) (HPC)): 100 % of control

SMILES: COC(=O)C(C)CN1CC(C)OC(C)C1 (stereo not drawn)
- T/C [6]: 113 % of control
- T/C [9]: 100 % of control
- T/C (dose: 400.0 mg/kg/injection, schedule: Q04DX003 (ip), vehicle: saline): 100 % of control

SMILES: C=CCCCCCCCCC(=O)NCc1nc2ccccc2[nH]1
- T/C [3]: 100 % of control
- T/C [7]: 109 % of control
- T/C (dose: 400.0 mg/kg/injection, schedule: Q01DX009 (ip), vehicle: saline with Tween-80): 95 % of control

SMILES: O=C(O)C(Cc1ccccc1)N=Cc1c(O)ccc2ccccc12 (stereo not drawn)
- T/C [5]: 105 % of control
- T/C [8]: 114 % of control
- T/C [10]: 89 % of control

SMILES: OC(CNc1ccc(Cl)c(Cl)c1)COc1ccc(Cl)cc1Cl (stereo not drawn)
- T/C [1]: 101 % of control
- T/C [3]: 101 % of control
- T/C [7]: 104 % of control

SMILES: O=C1CSC(C2CCCCC2)N1c1nccs1 (stereo not drawn)
- T/C [1]: 110 % of control
- T/C [3]: 112 % of control
- T/C [7]: 110 % of control

SMILES: CC(=O)Nc1onc(C)c1N
- T/C [2]: 90 % of control
- T/C [4]: 100 % of control
- T/C (dose: 200.0 mg/kg/injection, schedule: Q01DX009 (ip), vehicle: saline): 95 % of control

SMILES: C1CN(P2(N3CC3)=NP(N3CC3)(N3CC3)=NP(N3CC3)(N3CC3)=N2)CCO1 (stereo not drawn)
- T/C (dose: 6.25 mg/kg/injection, schedule: Q01DX009 (ip), vehicle: saline): 167 % of control and 195 % of control
- T/C (dose: 12.5 mg/kg/injection, schedule: Q01DX009 (ip), vehicle: saline): 227 % of control and 200 % of control
- T/C (dose: 25.0 mg/kg/injection, schedule: Q01DX009 (ip), vehicle: saline): 260 % of control and 155 % of control

SMILES: O=[N+]([O-])c1cccc(N2CN(c3ccccc3)NC(c3ccccc3)=N2)c1
- T/C (dose: 12.5 mg/kg/injection, schedule: Q04DX003 (ip), vehicle: saline with Tween-80): 100 % of control
- T/C (dose: 25.0 mg/kg/injection, schedule: Q04DX003 (ip), vehicle: saline with Tween-80): 96 % of control
- T/C (dose: 50.0 mg/kg/injection, schedule: Q04DX003 (ip), vehicle: saline with Tween-80): 105 % of control

SMILES: CS(=O)(=O)OCCNC[C@@H](O)[C@@H](O)CNCCOS(C)(=O)=O
- T/C (dose: 0.17 mg/kg/injection, schedule: Q04DX003 (ip), vehicle: saline): 121 % of control
- T/C (dose: 0.26 mg/kg/injection, schedule: Q04DX003 (ip), vehicle: saline): 117 % of control
- T/C (dose: 0.4 mg/kg/injection, schedule: Q04DX003 (ip), vehicle: saline): 154 % of control
- T/C (dose: 0.6 mg/kg/injection, schedule: Q04DX003 (ip), vehicle: saline): 170 % of control
- T/C (dose: 0.92 mg/kg/injection, schedule: Q04DX003 (ip), vehicle: saline): 175 % of control
- T/C (dose: 1.3 mg/kg/injection, schedule: Q04DX003 (ip), vehicle: saline): 175 % of control
- T/C (dose: 2.1 mg/kg/injection, schedule: Q04DX003 (ip), vehicle: saline): 186 % of control
- T/C (dose: 3.1 mg/kg/injection, schedule: Q04DX003 (ip), vehicle: saline): 168 % of control
- T/C (dose: 11.0 mg/kg/injection, schedule: Q04DX003 (ip), vehicle: saline): 200 % of control
- T/C (dose: 16.0 mg/kg/injection, schedule: Q04DX003 (ip), vehicle: saline): 243 % of control
- T/C (dose: 33.0 mg/kg/injection, schedule: Q04DX003 (ip), vehicle: saline): 300 % of control and 118 % of control

SMILES: O=C(Nc1nncs1)c1ccncc1
- T/C (dose: 50.0 mg/kg/injection, schedule: Q04DX002 (ip), vehicle: saline with Tween-80): 90 % of control
- T/C (dose: 200.0 mg/kg/injection, schedule: Q04DX002 (ip), vehicle: saline with Tween-80): 152 % of control
- T/C (dose: 400.0 mg/kg/injection, schedule: Q04DX002 (ip), vehicle: saline with Tween-80): 100 % of control

SMILES: CC(C)CC1NC(=O)CNC(=O)C(C)(C)NC(=O)C(C(C)C)NC(=O)C(C)(C)NC(=O)C(CCC(N)=O)NC(=O)C(C)NC(=O)C(C)(C)NC(=O)C(C)NC(=O)C(C)(C)NC(=O)C2CCCN2C(=O)CCC(C(=O)NC(CCC(N)=O)C(=O)O)NC(=O)C(C)(C)NC(=O)C(C)(C)NC(=O)C(C(C)C)NC(=O)C2CCCN2C(=O)C(C)(C)NC1=O (stereo not drawn) (P[Aib]A[Aib]AQ[Aib]V[Aib]GL[Aib]PV[Aib][Aib]EQ-OH; lactam N-17; configuration not given here)
- T/C (dose: 1.25 mg/kg/injection, schedule: Q01DX009 (ip), vehicle: water): 118 % of control
- T/C (dose: 2.5 mg/kg/injection, schedule: Q01DX009 (ip), vehicle: water): 102 % of control

SMILES: CC1=C(c2ccccc2)C(c2ccccc2)C(/C=C/c2ccccc2)=NC=C1c1ccccc1 (stereo not drawn)
- T/C [1]: 108 % of control
- T/C [3]: 94 % of control
- T/C [7]: 97 % of control
